*1 amine or outer side, *2 acyl side, *3 side chain or, on linkers, in order; H or OH if unused. Where a SMILES comes first, the peptide text is derived from it. Bridges are numbered along the chain shown (N, C = ends). [ ]: non-standard residue; d: D form. Phe(3,4,5-F3) = N[C@@H](Cc1cc(F)c(F)c(F)c1)C(=O)O; Phe(3,4-F2) = N[C@@H](Cc1ccc(F)c(F)c1)C(=O)O; d(cisHyp) = O=C(O)[C@H]1C[C@@H](O)CN1; NMeF = CN[C@@H](Cc1ccccc1)C(=O)O; X1 = O=C([C@H]1COCCN1[*:1])[*:2]; dNMeF = CN[C@H](Cc1ccccc1)C(=O)O; dHyp = O=C(O)[C@H]1C[C@H](O)CN1; NMeNle = CCCC[C@H](NC)C(=O)O; Orn = NCCC[C@H](N)C(=O)O; Dab = NCC[C@H](N)C(=O)O
Target: T1, Human PD-L1/PD-1 (Homo sapiens, UniProt Q9NZQ7)
T1 construct: TVMV protease cleavage site (C); made in house; host or cells: HEK293T cells
Assay: HTRF Human PD-L1/PD-1 binding assay (PD-1-Ig/PD-L1-His)
Settings: PD-L1-His 10 nM, PD-1-Ig 20 nM; class symbol; read-out: HTRF Human PD-L1/PD-1 Binding Assay IC50 Range
How it was run: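 Soluble HEK293T-expressed proteins: hPD-L1-His 10 nM, hPD-1-Ig 20 nM final. Cpd + PD-L1 15 min, + PD-1 15 min, + Eu anti-Ig 1 nM/APC anti-His 20 nM 30 min. Buffer dPBS, 0.1% BSA, 0.05% Tween-20. TR-FRET 665/620.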

T1 sequence (Q9NZQ7 with tags, fused parts or gaps): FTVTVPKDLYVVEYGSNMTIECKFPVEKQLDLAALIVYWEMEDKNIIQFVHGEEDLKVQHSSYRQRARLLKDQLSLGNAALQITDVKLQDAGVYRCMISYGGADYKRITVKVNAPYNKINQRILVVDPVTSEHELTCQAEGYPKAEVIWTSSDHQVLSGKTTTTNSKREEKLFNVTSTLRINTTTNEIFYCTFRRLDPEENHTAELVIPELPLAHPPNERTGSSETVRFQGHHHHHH

| SMILES | IC50 [nM] |
| --- | --- |
| CCCC[C@H]1C(=O)N2CCOC[C@@H]2C(=O)N[C@@H](CC(=O)O)C(=O)N[C@@H](C(C)C)C(=O)N(C)[C@@H](Cc2ccccc2)C(=O)N[C@@H](Cc2ccc(O)cc2)C(=O)N2CCOC[C@@H]2C(=O)N[C@@H](Cc2c[nH]c3ccccc23)C(=O)N[C@@H](Cc2ccc(O)cc2)C(=O)N[C@@H](CC(C)C)C(=O)N[C@H](C(=O)NCC(N)=O)CSCC(=O)N[C@@H](Cc2cc(F)c(F)c(F)c2)C(=O)N(C)[C@@H](Cc2ccccc2)C(=O)N1C [Example 9283] ({CH2CO}-[Phe(3,4,5-F3)][NMeF][NMeNle][X1]DV[NMeF]Y[X1]WYLCG-NH2; thioether N-13) | 1 to 9.9 |
| CCCC[C@H]1C(=O)N2CCOC[C@@H]2C(=O)N[C@@H](CC(=O)O)C(=O)N[C@@H](C(C)C)C(=O)N(C)[C@@H](Cc2ccccc2)C(=O)N[C@@H](Cc2ccc(O)cc2)C(=O)N2CCOC[C@@H]2C(=O)N[C@@H](Cc2c[nH]c3ccccc23)C(=O)N[C@@H](Cc2ccc(O)cc2)C(=O)N[C@@H](CCCN)C(=O)N[C@H](C(=O)NCC(N)=O)CSCC(=O)N[C@@H](Cc2cc(F)c(F)c(F)c2)C(=O)N(C)[C@@H](Cc2ccccc2)C(=O)N1C [Example 9284] ({CH2CO}-[Phe(3,4,5-F3)][NMeF][NMeNle][X1]DV[NMeF]Y[X1]WY[Orn]CG-NH2; thioether N-13) | 1 to 9.9 |
| CCCC[C@H]1C(=O)N2CCC[C@@H]2C(=O)N[C@@H](CC(=O)O)C(=O)N[C@@H](C(C)C)C(=O)N(C)[C@@H](Cc2ccccc2)C(=O)N[C@@H](CCC(=O)O)C(=O)N2C[C@@H](O)C[C@@H]2C(=O)N[C@@H](Cc2c[nH]c3ccccc23)C(=O)N[C@@H](Cc2ccc(O)cc2)C(=O)N[C@@H](CC(C)C)C(=O)N[C@H](C(=O)NCC(N)=O)CSCC(=O)N[C@@H](Cc2cc(F)c(F)c(F)c2)C(=O)N(C)[C@@H](Cc2ccccc2)C(=O)N1C [Example 9285] ({CH2CO}-[Phe(3,4,5-F3)][NMeF][NMeNle][dP]DV[NMeF]E[dHyp]WYLCG-NH2; thioether N-13) | 1 to 9.9 |
| CCCC[C@H]1C(=O)N2CCC[C@@H]2C(=O)N[C@@H](CC(=O)O)C(=O)N[C@@H](C(C)C)C(=O)N(C)[C@@H](Cc2ccccc2)C(=O)N[C@@H](CCC(=O)O)C(=O)N2C[C@@H](O)C[C@@H]2C(=O)N[C@@H](Cc2c[nH]c3ccccc23)C(=O)N[C@@H](Cc2ccc(O)cc2)C(=O)N[C@@H](CCCN)C(=O)N[C@H](C(=O)NCC(N)=O)CSCC(=O)N[C@@H](Cc2cc(F)c(F)c(F)c2)C(=O)N(C)[C@@H](Cc2ccccc2)C(=O)N1C [Example 9286] ({CH2CO}-[Phe(3,4,5-F3)][NMeF][NMeNle][dP]DV[NMeF]E[dHyp]WY[Orn]CG-NH2; thioether N-13) | 1 to 9.9 |
| CCCC[C@H]1C(=O)N2CCC[C@@H]2C(=O)N[C@@H](CC(=O)O)C(=O)N[C@@H](C(C)C)C(=O)N(C)[C@@H](Cc2ccccc2)C(=O)N[C@@H](Cc2ccc(O)cc2)C(=O)N2C[C@@H](O)C[C@@H]2C(=O)N[C@@H](Cc2c[nH]c3ccccc23)C(=O)N[C@@H](Cc2ccc(O)cc2)C(=O)N[C@@H](CC(C)C)C(=O)N[C@H](C(=O)NCC(N)=O)CSCC(=O)N[C@@H](Cc2cc(F)c(F)c(F)c2)C(=O)N(C)[C@@H](Cc2ccccc2)C(=O)N1C [Example 9287] ({CH2CO}-[Phe(3,4,5-F3)][NMeF][NMeNle][dP]DV[NMeF]Y[dHyp]WYLCG-NH2; thioether N-13) | 1 to 9.9 |
| CCCC[C@H]1C(=O)N2CCC[C@@H]2C(=O)N[C@@H](CC(=O)O)C(=O)N[C@@H](C(C)C)C(=O)N(C)[C@@H](Cc2ccccc2)C(=O)N[C@@H](Cc2ccc(O)cc2)C(=O)N2C[C@@H](O)C[C@@H]2C(=O)N[C@@H](Cc2c[nH]c3ccccc23)C(=O)N[C@@H](Cc2ccc(O)cc2)C(=O)N[C@@H](CCCN)C(=O)N[C@H](C(=O)NCC(N)=O)CSCC(=O)N[C@@H](Cc2cc(F)c(F)c(F)c2)C(=O)N(C)[C@@H](Cc2ccccc2)C(=O)N1C [Example 9288] ({CH2CO}-[Phe(3,4,5-F3)][NMeF][NMeNle][dP]DV[NMeF]Y[dHyp]WY[Orn]CG-NH2; thioether N-13) | 1 to 9.9 |
| CCCC[C@H]1C(=O)N2C[C@H](O)C[C@@H]2C(=O)N[C@@H](CC(=O)O)C(=O)N[C@@H](C(C)C)C(=O)N(C)[C@@H](Cc2ccccc2)C(=O)N[C@@H](CC(=O)O)C(=O)N2C[C@H](O)C[C@@H]2C(=O)N[C@@H](Cc2c[nH]c3ccccc23)C(=O)N[C@@H](Cc2ccc(O)cc2)C(=O)N[C@@H](CC(C)C)C(=O)N[C@H](C(=O)NCC(N)=O)CSCC(=O)N[C@@H](Cc2ccc(F)c(F)c2)C(=O)N(C)[C@@H](Cc2ccccc2)C(=O)N1C [Example 9289] ({CH2CO}-[Phe(3,4-F2)][NMeF][NMeNle][d(cisHyp)]DV[NMeF]D[d(cisHyp)]WYLCG-NH2; thioether N-13) | 1 to 9.9 |
| CCCC[C@H]1C(=O)N2C[C@H](O)C[C@@H]2C(=O)N[C@@H](CC(=O)O)C(=O)N[C@@H](C(C)C)C(=O)N(C)[C@@H](Cc2ccccc2)C(=O)N[C@@H](CC(N)=O)C(=O)N2C[C@H](O)C[C@@H]2C(=O)N[C@@H](Cc2c[nH]c3ccccc23)C(=O)N[C@@H](Cc2ccc(O)cc2)C(=O)N[C@@H](CC(C)C)C(=O)N[C@H](C(=O)NCC(N)=O)CSCC(=O)N[C@@H](Cc2ccc(F)c(F)c2)C(=O)N(C)[C@@H](Cc2ccccc2)C(=O)N1C [Example 9292] | 1 to 9.9 |
| CCCC[C@H]1C(=O)N2C[C@H](O)C[C@@H]2C(=O)N[C@@H](CC(=O)O)C(=O)N[C@@H](C(C)C)C(=O)N(C)[C@@H](Cc2ccccc2)C(=O)N[C@@H](CCCCN)C(=O)N2C[C@H](O)C[C@@H]2C(=O)N[C@@H](Cc2c[nH]c3ccccc23)C(=O)N[C@@H](Cc2ccc(O)cc2)C(=O)N[C@@H](CC(C)C)C(=O)N[C@H](C(=O)NCC(N)=O)CSCC(=O)N[C@@H](Cc2ccc(F)c(F)c2)C(=O)N(C)[C@@H](Cc2ccccc2)C(=O)N1C [Example 9294] ({CH2CO}-[Phe(3,4-F2)][NMeF][NMeNle][d(cisHyp)]DV[NMeF]K[d(cisHyp)]WYLCG-NH2; thioether N-13) | 1 to 9.9 |
| CCCC[C@H]1C(=O)N2C[C@H](O)C[C@@H]2C(=O)N[C@@H](CC(=O)O)C(=O)N[C@@H](C(C)C)C(=O)N(C)[C@H](Cc2ccccc2)C(=O)N[C@@H](CCCCN)C(=O)N2C[C@H](O)C[C@@H]2C(=O)N[C@@H](Cc2c[nH]c3ccccc23)C(=O)N[C@@H](Cc2ccc(O)cc2)C(=O)N[C@@H](CC(C)C)C(=O)N[C@H](C(=O)NCC(N)=O)CSCC(=O)N[C@@H](Cc2ccc(F)c(F)c2)C(=O)N(C)[C@@H](Cc2ccccc2)C(=O)N1C [Example 9295] ({CH2CO}-[Phe(3,4-F2)][NMeF][NMeNle][d(cisHyp)]DV[dNMeF]K[d(cisHyp)]WYLCG-NH2; thioether N-13) | 1 to 9.9 |
| CCCC[C@H]1C(=O)N2C[C@H](O)C[C@@H]2C(=O)N[C@@H](CC(=O)O)C(=O)N[C@@H](C(C)C)C(=O)N(C)[C@@H](Cc2ccccc2)C(=O)N[C@@H](CCCN)C(=O)N2C[C@H](O)C[C@@H]2C(=O)N[C@@H](Cc2c[nH]c3ccccc23)C(=O)N[C@@H](Cc2ccc(O)cc2)C(=O)N[C@@H](CC(C)C)C(=O)N[C@H](C(=O)NCC(N)=O)CSCC(=O)N[C@@H](Cc2ccc(F)c(F)c2)C(=O)N(C)[C@@H](Cc2ccccc2)C(=O)N1C [Example 9296] ({CH2CO}-[Phe(3,4-F2)][NMeF][NMeNle][d(cisHyp)]DV[NMeF][Orn][d(cisHyp)]WYLCG-NH2; thioether N-13) | 1 to 9.9 |
| CCCC[C@H]1C(=O)N2C[C@H](O)C[C@@H]2C(=O)N[C@@H](CC(=O)O)C(=O)N[C@@H](C(C)C)C(=O)N(C)[C@H](Cc2ccccc2)C(=O)N[C@@H](CCCN)C(=O)N2C[C@H](O)C[C@@H]2C(=O)N[C@@H](Cc2c[nH]c3ccccc23)C(=O)N[C@@H](Cc2ccc(O)cc2)C(=O)N[C@@H](CC(C)C)C(=O)N[C@H](C(=O)NCC(N)=O)CSCC(=O)N[C@@H](Cc2ccc(F)c(F)c2)C(=O)N(C)[C@@H](Cc2ccccc2)C(=O)N1C [Example 9297] ({CH2CO}-[Phe(3,4-F2)][NMeF][NMeNle][d(cisHyp)]DV[dNMeF][Orn][d(cisHyp)]WYLCG-NH2; thioether N-13) | 1 to 9.9 |
| CCCC[C@H]1C(=O)N2C[C@H](O)C[C@@H]2C(=O)N[C@@H](CC(=O)O)C(=O)N[C@@H](C(C)C)C(=O)N(C)[C@@H](Cc2ccccc2)C(=O)N[C@@H](CCN)C(=O)N2C[C@H](O)C[C@@H]2C(=O)N[C@@H](Cc2c[nH]c3ccccc23)C(=O)N[C@@H](Cc2ccc(O)cc2)C(=O)N[C@@H](CC(C)C)C(=O)N[C@H](C(=O)NCC(N)=O)CSCC(=O)N[C@@H](Cc2ccc(F)c(F)c2)C(=O)N(C)[C@@H](Cc2ccccc2)C(=O)N1C [Example 9298] ({CH2CO}-[Phe(3,4-F2)][NMeF][NMeNle][d(cisHyp)]DV[NMeF][Dab][d(cisHyp)]WYLCG-NH2; thioether N-13) | 1 to 9.9 |
| CCCC[C@H]1C(=O)N2C[C@H](O)C[C@@H]2C(=O)N[C@@H](CC(=O)O)C(=O)N[C@@H](C(C)C)C(=O)N(C)[C@H](Cc2ccccc2)C(=O)N[C@@H](CCN)C(=O)N2C[C@H](O)C[C@@H]2C(=O)N[C@@H](Cc2c[nH]c3ccccc23)C(=O)N[C@@H](Cc2ccc(O)cc2)C(=O)N[C@@H](CC(C)C)C(=O)N[C@H](C(=O)NCC(N)=O)CSCC(=O)N[C@@H](Cc2ccc(F)c(F)c2)C(=O)N(C)[C@@H](Cc2ccccc2)C(=O)N1C [Example 9299] ({CH2CO}-[Phe(3,4-F2)][NMeF][NMeNle][d(cisHyp)]DV[dNMeF][Dab][d(cisHyp)]WYLCG-NH2; thioether N-13) | 1 to 9.9 |
| CCCC[C@H]1C(=O)N2C[C@H](O)C[C@@H]2C(=O)N[C@@H](CC(=O)O)C(=O)N[C@@H](C(C)C)C(=O)N(C)[C@@H](Cc2ccccc2)C(=O)N[C@@H](CC(=O)O)C(=O)N2C[C@H](O)C[C@@H]2C(=O)N[C@@H](Cc2c[nH]c3ccccc23)C(=O)N[C@@H](Cc2ccc(O)cc2)C(=O)N[C@@H](CCCN)C(=O)N[C@H](C(=O)NCC(N)=O)CSCC(=O)N[C@@H](Cc2ccc(F)c(F)c2)C(=O)N(C)[C@@H](Cc2ccccc2)C(=O)N1C [Example 9300] ({CH2CO}-[Phe(3,4-F2)][NMeF][NMeNle][d(cisHyp)]DV[NMeF]D[d(cisHyp)]WY[Orn]CG-NH2; thioether N-13) | 1 to 9.9 |

Source: patent publication US10538555B2, “Macrocyclic inhibitors of the PD-1/PD-L1 and CD80(B7-1)/PD-L1 protein/protein interactions” (BRISTOL-MYERS SQUIBB COMPANY, priority 2014, dated 2020)
